# Tested on: uric acid levels
# Assay: Multiple ascending dose study every twelve hours for seven days, uric acid in healthy elderly subjects
# Format: in vivo, human
# Conditions: for uric acid, Mean: N=6
# Method: A single-center, randomized, placebo-controlled, multiple ascending dose study evaluating a scyllo-inositol formulation was conducted in healthy elderly subjects. Approximately 32 healthy subjects (men and women) participated in […] consisting of 8 subjects each (i.e., 6 on active drug and 2 on placebo). Subjects received drug twice daily (BID) (every 12 hours) for 7 days. The dosage levels of the scyllo-inositol were 200 mg BID (400 mg/d total), 700 mg BID (1400 mg/d total), 1500 mg BID (3000 mg/d total) and 3000 mg BID (6000 mg/d total) given every 12 hours. Blood samples were collected from each subject on days 0, 4, 7, and 12.
# Scyllo-inositol 200 and 500 mg capsules were bovine spongiform encephalopathy (BSE)/transmissible spongiform encephalopathy (TSE)-free soft gelatin, white, opaque capsules and no excipient was used in the finished product. Capsules were supplied in 60-mL, oblong, white pharmaceutical high density polyethylene (HDPE) bottles with white caps. Each 60-mL bottle contained 30 capsules of 200 or 500 mg scyllo-inositol.
# The mean change from baseline to day 7 versus placebo was used to determine statistical significance. […] The ANCOVA looked at the change of uric acid levels in controls from starting levels of uric acid; the software used was SAS 9.1.3. […] The point estimate of 0.85 is a population parameter in dosed subjects.
# [1] = 200 mg BID oral 7 days group, Baseline (Day 0)
# [2] = 700 mg BID oral 7 days group, Baseline (Day 0)
# [3] = 1500 mg BID oral 7 days group, Baseline (Day 0)
smiles,measurement,setting,value
"O[C@H]1[C@H](O)[C@@H](O)[C@H](O)[C@@H](O)[C@@H]1O [scyllo-inositol, 1,2,3,4,5,6-cyclohexanehexyl, (1alpha,2beta,3alpha,4beta,5alpha,6beta)]","uric acid, Max",[1],458 micromole per liter
same,"uric acid, Median",[1],318.2 micromole per liter
same,"uric acid, Min",[1],149 micromole per liter
same,"uric acid, Mean",[1],316.2 micromole per liter
same,"uric acid, Max","200 mg BID oral 7 days, Day 4",410 micromole per liter
same,"uric acid, Max Change from Baseline","200 mg BID oral 7 days, Day 4",54 micromole per liter
same,"uric acid, Mean Change from Baseline","200 mg BID oral 7 days, Day 4",−7.9 micromole per liter
same,"uric acid, Median","200 mg BID oral 7 days, Day 4",330.1 micromole per liter
same,"uric acid, Median Change from Baseline","200 mg BID oral 7 days, Day 4",−11.9 micromole per liter
same,"uric acid, Min","200 mg BID oral 7 days, Day 4",143 micromole per liter
same,"uric acid, Min Change from Baseline","200 mg BID oral 7 days, Day 4",−48 micromole per liter
same,"uric acid, Mean","200 mg BID oral 7 days, Day 4",308.3 micromole per liter
same,"uric acid, Max","200 mg BID oral 7 days, Day 7",387 micromole per liter
same,"uric acid, Max Change from Baseline","200 mg BID oral 7 days, Day 7",18 micromole per liter
same,"uric acid, Mean Change from Baseline","200 mg BID oral 7 days, Day 7",−25.8 micromole per liter
same,"uric acid, Median","200 mg BID oral 7 days, Day 7",333.1 micromole per liter
same,"uric acid, Median Change from Baseline","200 mg BID oral 7 days, Day 7",−17.8 micromole per liter
same,"uric acid, Min","200 mg BID oral 7 days, Day 7",143 micromole per liter
same,"uric acid, Min Change from Baseline","200 mg BID oral 7 days, Day 7",−77 micromole per liter
same,"uric acid, Mean","200 mg BID oral 7 days, Day 7",290.5 micromole per liter
same,"uric acid, Max","200 mg BID oral 7 days, Day 12",476 micromole per liter
same,"uric acid, Max Change from Baseline","200 mg BID oral 7 days, Day 12",59 micromole per liter
same,"uric acid, Median","200 mg BID oral 7 days, Day 12",368.8 micromole per liter
same,"uric acid, Median Change from Baseline","200 mg BID oral 7 days, Day 12",26.8 micromole per liter
same,"uric acid, Min","200 mg BID oral 7 days, Day 12",184 micromole per liter
same,"uric acid, Min Change from Baseline","200 mg BID oral 7 days, Day 12",−12 micromole per liter
same,"uric acid, Mean","200 mg BID oral 7 days, Day 12",342.0 micromole per liter
same,"uric acid, Max",[2],410 micromole per liter
same,"uric acid, Median",[2],258.7 micromole per liter
same,"uric acid, Min",[2],161 micromole per liter
same,"uric acid, Mean",[2],269.6 micromole per liter
same,"uric acid, Max","700 mg BID oral 7 days, Day 4",351 micromole per liter
same,"uric acid, Max Change from Baseline","700 mg BID oral 7 days, Day 4",0 micromole per liter
same,"uric acid, Mean Change from Baseline","700 mg BID oral 7 days, Day 4",−51.5 micromole per liter
same,"uric acid, Median","700 mg BID oral 7 days, Day 4",175.5 micromole per liter
same,"uric acid, Median Change from Baseline","700 mg BID oral 7 days, Day 4",−62.5 micromole per liter
same,"uric acid, Min","700 mg BID oral 7 days, Day 4",143 micromole per liter
same,"uric acid, Min Change from Baseline","700 mg BID oral 7 days, Day 4",−101 micromole per liter
same,"uric acid, Mean","700 mg BID oral 7 days, Day 4",218.1 micromole per liter
same,"uric acid, Max","700 mg BID oral 7 days, Day 7",309 micromole per liter
same,"uric acid, Max Change from Baseline","700 mg BID oral 7 days, Day 7",−12 micromole per liter
same,"uric acid, Mean Change from Baseline","700 mg BID oral 7 days, Day 7",−70.4 micromole per liter
same,"uric acid, Median","700 mg BID oral 7 days, Day 7",169.5 micromole per liter
same,"uric acid, Median Change from Baseline","700 mg BID oral 7 days, Day 7",−83.3 micromole per liter
same,"uric acid, Min","700 mg BID oral 7 days, Day 7",125 micromole per liter
same,"uric acid, Min Change from Baseline","700 mg BID oral 7 days, Day 7",−107 micromole per liter
same,"uric acid, Mean","700 mg BID oral 7 days, Day 7",199.3 micromole per liter
same,"uric acid, Max","700 mg BID oral 7 days, Day 12",410 micromole per liter
same,"uric acid, Max Change from Baseline","700 mg BID oral 7 days, Day 12",30 micromole per liter
same,"uric acid, Mean Change from Baseline","700 mg BID oral 7 days, Day 12",−1.0 micromole per liter
same,"uric acid, Median","700 mg BID oral 7 days, Day 12",237.9 micromole per liter
same,"uric acid, Median Change from Baseline","700 mg BID oral 7 days, Day 12",3.0 micromole per liter
same,"uric acid, Min","700 mg BID oral 7 days, Day 12",167 micromole per liter
same,"uric acid, Min Change from Baseline","700 mg BID oral 7 days, Day 12",−54 micromole per liter
same,"uric acid, Mean","700 mg BID oral 7 days, Day 12",268.7 micromole per liter
same,"uric acid, Max",[3],434 micromole per liter
same,"uric acid, Median",[3],279.6 micromole per liter
